Earlier results on one compound are cited in patent publication US20240277751A1, “CRYSTALLINE POLYMORPHIC FORMS OF STING AGONISTS ASSOCIATED WITH METAL IONS CAPABLE OF MODULATING AN IMMUNE RESPONSE” (priority 2020, published 2024).

Consider `Nc1ncnc2c1ncn2[C@@H]1O[C@@H]2COP(=O)([S-])O[C@@H]3[C@H](O)[C@@H](COP([O-])(=S)O[C@H]2[C@H]1O)O[C@H]3n1cnc2c(N)ncnc21.[Na+].[Na+]` (some centres unmarked) [MIW815], for which, for the setting “1 hour after intratumor injection, phase I clinical trial”, the “fraction entered the systemic circulation” value is listed as “over 98%”. The half-life in serum (in vivo) is recorded as roughly 16 min.
